Results: publication PMC6389928, “Biomolecular Interaction, Anti-Cancer and Anti-Angiogenic Properties of Cobalt(III) Schiff Base Complexes” (Scientific Reports, 2019)

Assays:
[1] = system: CT-DNA; assay: Electronic absorption titration of the complexes with CT-DNA; type: binding; conditions: for intrinsic binding constant Kb: CT-DNA, plot of [DNA]/(εa−εf) vs [DNA]; for percentage of hypochromism (% H) / red shift: absorption spectra on incremental addition of CT-DNA
Experimental: The absorption spectra of the complexes 1 and 2 were measured in presence and absence of CT-DNA, and the results are shown in Fig. 2.
The value of DNA binding constant (Kb) of the complexes 1 and 2 were calculated using the equation[32], [DNA]/(εa−εf)=[DNA]/(ε0−εf)+1/Kb(ε0−εf) where [DNA] is the concentration of DNA expressed in base pairs; εa is called as apparent extinction coefficient which is determined by calculating Aobs/[complex], εf and ε0 are the apparent free and fully-bound cobalt(III) complex extinction coefficients.
The intrinsic binding constants Kb of complexes 1 and 2 were calculated from the plot of [DNA]/ (εa-εf) versus [DNA] the values are shown in Table 1. […] As both the complexes intercalated with DNA, it is expected that salicylaldehyde aromatic moiety is involved in the intercalation. […] This is due to the presence of additional aromatic phenyl ring in the salophen Schiff base ligand in complex 2 which enhanced stacking interaction between salicylaldehyde aromatic moiety and DNA bases.
Concentrated stock solution of DNA was prepared in PBS and sonicated for 25 cycles, where in each cycle consisted of 30 seconds with 1 min intervals. The DNA concentration per nucleotide was determined by electronic absorption spectroscopy using the known molar extinction coefficient value of 6600 M^−1 cm^−1 at 260 nm[79].
The stock solutions were prepared by dissolving the complexes 1 and 2 in an aqueous solution of DMSO as the co-solvent, and then diluted suitably with the corresponding buffer to the required concentrations for all the experiments. The final DMSO concentration never exceeded 0.5%. For absorption and emission spectral experiments, the DNA solutions were pre-treated with the solutions of metal complexes to ensure no change in the metal complex concentrations.
Absorption studies were performed by maintaining the constant concentration of both the complexes and varying the CT-DNA concentration. An equal amount of CT-DNA was added to the complexes and the reference solution to eliminate the absorbance of CT-DNA itself.

[2] = system: developing blood vessels of the chicken chorioallantoic membrane; assay: Chicken chorioallantoic membrane (CAM) assay; type: in vivo; conditions: for inhibition of vessel formation: 10 µM on filter paper discs, end of incubation (6 h); for angiogenic parameters (vessel size, vessel length, number of vessel branches): 10 µM, angioquant software, compared to control
Experimental: Chicken chorioallantoic membrane (CAM) assay is a well-known in vivo angiogenesis assay. To confirm the anti-angiogenic properties of cobalt complexes 1 and 2, CAM assay was performed. The complexes 1 and 2, on incubation for […], produced excellent inhibitory activity on the developing blood vessels. […] Several angiogenic parameters such as vessel size, vessel length and number of vessel branches were quantified using angioquant software as practiced in an earlier study[77] and represented as bar diagram (Fig. 5). […] This trend is also in tune with the DNA binding ability and anti-cancer activity of the complexes 1 and 2.
The Institutional Animal Care and Use Committee, an Association of New England Medical Center and Tufts (IACUC) and the National Institute of Health, USA, had established that a chick embryo that has not reached the 14th day of its developmental period would not experience pain and can, therefore, be used for experimentation without any ethical restrictions or prior protocol approval[95]–[97]. The anti-angiogenic activity was investigated on adopting the Chicken chorioallantoic membrane (CAM) assay. Briefly, specific pathogen-free (SPF) fertile chicken eggs were obtained from a government poultry farm. The eggs were incubated at 37 °C in a humid atmosphere. On the 5th day of incubation, the shell was cautiously broken using forceps. Precautions were taken to prevent puncture of any of the blood vessels during the transfer. The stock solutions were prepared by dissolving the complexes 1 and 2 in DMSO and then diluted suitably with the corresponding buffer to the required concentrations for all the experiments. The final DMSO concentration never exceeded 0.1%. Sterile filter paper discs (6 mm dia) soaked in solution of complexes (10 µM) were placed in 3 different positions over the generating blood vessels. For the control experiments sterile filter paper disks (6 mm dia) soaked with 10 µM of 0.1% of DMSO in PBS were used. Images of blood vessels (i.e., 0 h) were taken using stereo microscope (Nexius Zoom). The eggs were aseptically transferred in a humidified incubator at 37 °C and images were captured after 6 h incubation.

SMILES	intrinsic binding constant Kb [1]	percentage of hypochromism (% H) [1]	red shift [1]	inhibition of vessel formation [2]	angiogenic parameters (vessel size, vessel length, number of vessel branches) [2]
CCCCCCCCCCCC[NH2+][Co-3]123([NH2+]CCCCCCCCCCCC)[O]c4ccccc4C=[N+]1CC[N+]2=Cc1ccccc1[O]3.[O-][Cl+3]([O-])([O-])[O-] [Complex 1, trans-[Co(salen)(DA)2](ClO4)]	13100 M⁻¹	31.54%	10 nm	profound inhibition of vessel formation	reduction in all of these parameters compared to control
CCCCCCCCCCCC[NH2+][Co-3]123([NH2+]CCCCCCCCCCCC)[O]c4ccccc4C=[N+]1c1ccccc1[N+]2=Cc1ccccc1[O]3.[O-][Cl+3]([O-])([O-])[O-] [Complex 2, trans-[Co(salophen)(DA)2](ClO4)]	31500 M⁻¹	36.81%	13 nm	profound inhibition of vessel formation	reduction in all of these parameters compared to control
